According to ChEMBL document CHEMBL1131633, “Design, synthesis, and biological activities of new thieno[3,2-d] pyrimidines as selective type 4 phosphodiesterase inhibitors” (J Med Chem, 1998):

Assays:
[1] = biological target: Phosphodiesterase 4 (Cavia porcellus); assay: Inhibitory activity against phosphodiesterase 4 isolated from guinea pig ventricular tissue
[2] = biological target: Phosphodiesterase 3 (Cavia porcellus); assay: Inhibitory activity against cGMP inhibited Phosphodiesterase 3, isolated from guinea pig ventricular tissue
[3] = biological target: Phosphodiesterase 4 (Cavia porcellus); assay: Increased cAMP accumulation in isoprenaline-induced guinea pig eosinophils
[4] = biological target: Phosphodiesterase 4 (Rattus norvegicus) (UniProt P14270+P14646+P14644+P54748); assay: Displacement of [3H]rolipram from Phosphodiesterase 4 in rat brain membranes at 10 uM; format: cell membranes

IC50 [1]	IC50 [2]	EC50 [3]	inhibition [4]	SMILES
29 µM	> 200 µM	–	–	c1ccc(CNc2[nH]c(Cc3ccccc3)nc3ncnc2-3)cc1
0.9 µM	> 200 µM	–	–	CCCc1nc2ccccc2n(Cc2ccccc2)c1=O
14 µM	68 µM	18 µM	–	c1ccc(CNc2ncnc3ccsc23)cc1
1.5 µM	5 µM	–	–	c1ccc(CNc2nc(Cc3ccccc3)nc3ccsc23)cc1
0.6 µM	29 µM	–	–	CCCCc1nc(NCc2ccncc2)c2sccc2n1
2.3 µM	30 µM	–	41%	CCc1nc(NCc2ccccc2)c2sccc2n1
1 µM	> 200 µM	–	–	CCCc1nc2cccnc2n(Cc2ccccc2)c1=O
3 µM	> 200 µM	–	8%	c1ccc(CNc2nc(-c3ccccc3)nc3ccsc23)cc1
6.7 µM	45 µM	–	–	CCCCc1nc(NCc2ccccc2)c2nccnc2n1
65 µM	> 200 µM	21 µM	–	c1ccc(CNc2nc(N3CCCCC3)nc3ccsc23)cc1
23 µM	> 200 µM	–	–	CCCCc1nc(NC(=O)c2ccccc2)c2sccc2n1
5 µM	43 µM	–	–	CCCCc1nc2ccsc2c(=O)n1Cc1ccccc1
10 µM	> 200 µM	–	–	CCCCc1nc2ncccc2c(=O)n1Cc1ccccc1
2.5 µM	> 200 µM	–	37%	CCCCc1nc(N(CCC)Cc2ccccc2)c2sccc2n1
4 µM	> 200 µM	–	37%	CCCCc1nc(N(Cc2ccccc2)Cc2ccccc2)c2sccc2n1
6.3 µM	8.5 µM	–	–	CCCCc1nc(NCc2ccc([N+](=O)[O-])cc2)c2sccc2n1
16 µM	> 200 µM	–	–	CCCCc1nc2ccccc2c(=O)n1Cc1ccccc1
> 200 µM	200 µM	–	–	CCCCc1nc(NCc2ccc(-c3ccccc3)cc2)c2sccc2n1
